According to ChEMBL document CHEMBL1125092, “Nonneurotoxic tetralin and indan analogues of 3,4-(methylenedioxy)amphetamine (MDA)” (J Med Chem, 1990):
Values joined by “and” are separate entries in the source; they are usually repeats but may differ in a detail not shown here. Equal entries are not always repeated.

Tests used:
Format in all cases: functional
[1] = system: Rattus norvegicus; assay: Percentage of animals disrupted in groups of MDMA trained rats at a dose of 12.31 (umol/kg),(number of animals = 8)
[2] = system: Rattus norvegicus; assay: Percentage of animals disrupted in groups of MDMA trained rats at a dose of 16.41 (umol/kg),(number of animals = 11)
[3] = system: Rattus norvegicus; assay: Percentage of animals disrupted in groups of MDMA trained rats at a dose of 4.10 (umol/kg),(number of animals = 8)
[4] = system: Rattus norvegicus; assay: Percentage of animals disrupted was determined in groups of LSD trained rat at a dose of 8.21 (umol/kg),(no. of animals = 8)
[5] = system: Rattus norvegicus; assay: Tested for stimulus generation in rats trained to discriminate LSD from saline at 4.10 (umol/kg),(number of animals = 10)
[6] = system: Rattus norvegicus; assay: Percentage of animals disrupted was determined in groups of LSD trained rat at a dose of 16.41 (umol/kg),(no. of animals=11)
[7] = system: Rattus norvegicus; assay: Percentage of animals disrupted was determined in groups of LSD trained rat at a dose of 18.46 (umol/kg),(no. of animals=9)
[8] = system: Rattus norvegicus; assay: Tested for stimulus generation in rats trained to discriminate LSD from saline at a dose 8.21 (umol/kg),(number of animals = 8)
[9] = system: Rattus norvegicus; assay: Tested for stimulus generation in rats trained to discriminate +/-MDMA from saline at 8.21 (umol/kg),(number of animals = 9)
[10] = system: Rattus norvegicus; assay: Tested for stimulus generation in rats trained to discriminate +/-MDMA from saline at 17.44i (umol/kg),(number of animals = 11)
[11] = system: Rattus norvegicus; assay: Percentage of animals disrupted in groups of MDMA trained rats at a dose of 20.51 (umol/kg),(number of animals = 7)
[12] = system: Rattus norvegicus; assay: Tested for stimulus generation in rats trained to discriminate LSD from saline at a dose 16.41(.umol/kg),(number of animals = 11)
[13] = system: Rattus norvegicus; assay: Tested for stimulus generation in rats trained to discriminate +/-MDMA from saline at 12.31 (umol/kg),(number of animals = 8)
[14] = system: Rattus norvegicus; assay: Tested for stimulus generation in rats trained to discriminate +/-MDMA from saline at 4.10 (umol/kg),(number of animals = 8)
[15] = system: Rattus norvegicus; assay: Percentage of animals disrupted in groups of MDMA trained rats at a dose of 17.44 (umol/kg),(number of animals = 11)
[16] = system: Rattus norvegicus; assay: Percentage of animals disrupted was determined in groups of LSD trained rat at a dose of 6.15 (uM/kg), (no.of animals = 11)
[17] = system: Rattus norvegicus; assay: Percentage of animals disrupted in groups of MDMA trained rats at a dose of 8.21 (umol/kg),(number of animals = 9)
[18] = system: Rattus norvegicus; assay: Hallucinogenic property was determined in groups of LSD trained rats and percentage of animals disrupted was reported at a dose 4.10 (umol/kg),(number of animals = 10)
[19] = system: Rattus norvegicus; assay: Tested for stimulus generation in rats trained to discriminate +/-MDMA from saline at 16.41(.umol/kg),(number of animals = 11)
[20] = system: Rattus norvegicus; assay: Tested for stimulus generation in rats trained to discriminate LSD from saline at a 18.46 (umol/kg),(number of animals = 9)
[21] = system: Rattus norvegicus; assay: Tested for stimulus generation in rats trained to discriminate LSD from saline at a dose 6.15 (umol/kg),(number of animals = 11)
[22] = system: Rattus norvegicus; assay: Tested for stimulus generation in rats trained to discriminate LSD from saline at a dose 0.093(umol/kg) (number of animals = 8)
[23] = system: Rattus norvegicus; assay: Tested for stimulus generation in rats trained to discriminate LSD from saline at a dose 0.046(umol/kg) (number of animals = 9)
[24] = system: Rattus norvegicus; assay: Hallucinogenic property was determined in groups of LSD trained rats and percentage of animals disrupted was reported at a dose 0.093(umol/kg) (number of animals = 8)
[25] = species: Rattus norvegicus; assay: Inhibitory activity was determined LSD trained rats
[26] = system: Rattus norvegicus; assay: Hallucinogenic property was determined in groups of LSD trained rats and percentage of animals disrupted was reported at 0.023 (umol/kg) (number of animals = 8)
[27] = system: Rattus norvegicus; assay: Hallucinogenic property was determined in groups of LSD trained rats and percentage of animals disrupted was reported at a dose 0.186 (umol/kg),(number of animals = 8)
[28] = system: Rattus norvegicus; assay: Hallucinogenic property was determined in groups of LSD trained rats and percentage of animals disrupted was reported at a dose 0.012 (umol/kg),(number of animals = 8)
[29] = system: Rattus norvegicus; assay: Hallucinogenic property was determined in groups of LSD trained rats and percentage of animals disrupted was reported at a dose 0.046(umol/kg) (number of animals = 9)
[30] = system: Rattus norvegicus; assay: Tested for stimulus generation in rats trained to discriminate LSD from saline at a dose 0.012 (umol/kg),(number of animals = 8)
[31] = system: Rattus norvegicus; assay: Tested for stimulus generation in rats trained to discriminate LSD from saline at a dose 0.186 (umol/kg),(number of animals = 8)
[32] = system: Rattus norvegicus; assay: Tested for stimulus generation in rats trained to discriminate LSD from saline at a dose 0.023 (umol/kg) (number of animals = 8)

**Q.** For COc1cc(C)c(OC)c2c1CC(N)C2 (configuration not stated), which D [1] is on record?
**A.** 0%

**Q.** And the D [2]?
**A.** 27%

**Q.** And the D [3]?
**A.** 0%

**Q.** What about the D [4] of the same compound?
**A.** 0%

**Q.** What about the SDL [5] of the same compound?
**A.** 20%

**Q.** What about the D [6] of the same compound?
**A.** 27%

**Q.** What about the D [7] of the same compound?
**A.** 0%

**Q.** What about the SDL [8] of the same compound?
**A.** 38%

**Q.** And the SDL [9]?
**A.** 38%

**Q.** And the SDL [10]?
**A.** 50%

**Q.** What about the D [11] of the same compound?
**A.** 71%

**Q.** And the SDL [12]?
**A.** 63%

**Q.** And the SDL [13]?
**A.** 25%

**Q.** And the SDL [14]?
**A.** 13%

**Q.** And the D [15]?
**A.** 27%

**Q.** What about the D [16] of the same compound?
**A.** 27%

**Q.** And the D [17]?
**A.** 11%

**Q.** And the D [18]?
**A.** 0%

**Q.** What about the SDL [19] of the same compound?
**A.** 75%

**Q.** What about the SDL [20] of the same compound?
**A.** 89%

**Q.** What about the SDL [21] of the same compound?
**A.** 38%

**Q.** What does the source list for CCN(CC)C(=O)[C@@H]1C=C2c3cccc4[nH]cc(c34)C[C@H]2N(C)C1 [LYSERGIDE]?
**A.** SDL [22]: 88%; SDL [23]: 44%; D [24]: 0%; ED50 [25]: 0.048 µM/kg and 0.021 µM/kg; D [26]: 0%; D [27]: 0%; D [28]: 0%; D [29]: 0%; SDL [30]: 13%; SDL [31]: 100%; SDL [32]: 0%
